Values quoted from earlier work in patent US8187800B2, “Methods for selecting active agents for cancer treatment” (Precision Therapeutics, Inc., priority 2007, dated 2012).

Tested on: breast cancer
Details: neoadjuvant therapy in breast cancer patients; 4 cycles FEC, then 4 cycles docetaxel

Structure (SMILES): CC(=O)O[C@@]12CO[C@@H]1C[C@H](O)[C@@]1(C)C(=O)[C@H](O)C3=C(C)[C@@H](OC(=O)[C@H](O)[C@@H](NC(=O)OC(C)(C)C)c4ccccc4)C[C@@](O)([C@@H](OC(=O)c4ccccc4)[C@H]21)C3(C)C [docetaxel]
- overall clinical response: 75%
